For data set [1], the system named is p38 MAPK. In words: Immunoblot of p38 MAPK and 14-3-3ζ/δ phosphorylation in primary MEPM cells. The format is cell-based, mice. As to conditions: Tgfbr2^fl/fl; Wnt1-Cre MEPM cells, 10 μM for 24 hours. On the procedure:
(§1) Primary MEPM cells. Primary MEPM cells were obtained from E13.5 embryos. Briefly, palatal shelves were dissected at E13.5, and trypsinized for 30 minutes at 37° C. in a CO2 incubator. After pipetting thoroughly, cells were cultured in Dulbecco's modified Eagle's medium containing 10% fetal bovine serum supplemented with penicillin, streptomycin, L-glutamate, sodium pyruvate, and nonessential amino acids.
Background: In western blotting, separated proteins are transferred to a membrane and probed.

Data set [2] deals with Tgfbr2^fl/fl; Wnt1-Cre palate. As to the kind of experiment: Palatal shelf organ culture, BrdU-labeled nuclei (Example 2). Type of data set: cell-based, mice. The settings on record: ex vivo organ culture, 100 μM, 24 hours. On the procedure: Histological examination. Hematoxylin and eosin staining and BrdU staining were performed as described previously. Immunohistochernical staining was performed as described previously. Antibodies used for immunohistochemistry were anti-β-spectrin rabbit polyclonal, and anti-Tgf-βRIII mouse monoclonal antibodies (Santa Cruz Biotechnology), anti-Tgf-β2 mouse monoclonal, and anti-14-3-3ζ/δ rabbit polyclonal antibodies (Abeam). Fluorescence images were obtained using a fluorescence microscope (Model IX71, Olympus).
Palatal shelf organ culture. Time-pregnant mice were sacrificed at E13.5. Genotyping was carried out as described above. The palatal shelves were microdissected and cultures in serum-less chemically defined medium as previously described. After 24 hours in culture treated with p38 MAPK inhibitor SB203580 (100 μM), and neutralizing antibody for Tgf-β2 (2 μg/ml) or Tgf-βRIII (2 μg/ml), palates were harvested, fixed in 4% paraformaldehyde/0.1 M phosphate buffer (pH 7.4) and processed.

In data set [3] the test system is Tgfbr2^fl/fl; Wnt1-Cre MEPM cells. As to the kind of experiment: Lipid droplet accumulation (Oil Red O staining) in primary MEPM cells. The format is cell-based, mice. Here is the method: Histological examination. Cryosections were stained with Oil Red O to detect lipid production. Prepared sections were washed three times in phosphate buffer saline (PBS) (each wash 5 min) and fixed in 4% formaldehyde in 0.1 M phosphate buffer for 1 h at room temperature. Sections were then incubated for 15 min in 60% isopropanol and stained for 15 min with a filtered solution of three parts of Oil Red O (saturated in isopropanol) and two parts of ddH2O. For the next step, slides were briefly rinsed in 60% isopropanol and washed thoroughly in ddH2O. Cells were counterstained in Mayers Hematoxylin Solution.
as §1

The next data set deals with MEPM cells. In words: Pulse-chase analysis of lipid droplet formation. Type of data set: cell-based, mice. On the procedure: Pulse-chase analysis of lipid droplet formation. Chemical inducers, oleic acid for lipogenesis and isoproterenol for lipolysis, were added into culture medium to analyze lipid droplet formation. The number of lipid droplets per cell was counted. Oleic acid was added to the medium at 100 μM for 0, 60, and 120 min, and then washed out and changed to the medium with 100 μM isoproterenol for 10 and 30 min. Twenty cells were counted at each time point.

Data set [4] concerns Tgfbr2^fl/fl; Wnt1-Cre mice. In words: Rescue of cleft palate in Tgfbr2^fl/fl; Wnt1-Cre embryos after feeding telmisartan to pregnant females. The format is in vivo. As to conditions: for cleft palate (in words): Tgfbr2 mutant mice, treatment of pregnant mice. On the procedure: (§2) Animals. To generate Tgfbr2^fl/fl; Wnt1-Cre mice, we mated Tgfbr2^fl/+; Wnt1-Cre with Tgfbr2^fl/fl mice. To generate Tgfbr2^fl/fl; Wnt1-Cre; Tgfb2^+/− mice, we mated Tgfbr2^fl/+; Wnt1-Cre; Tgfb2^+/− with Tgfbr2^fl/fl mice. To generate Tgfbr2^fl/fl; Wnt1-Cre; Alk5^fl/+ mice, we mated Tgfbr2^fl/+; Wnt1-Cre; Alk5^fl/fl with Tgfbr2^fl/fl; Alk5^fl/fl mice. Genotyping was performed using PCR primers as described previously^28, 29. Female Tgfbr2^fl/fl mice, which underwent timed matings with Tgfbr2^fl/+; Wnt1-Cre male mice, were treated with oral telmisartan (0.5 mg in 25 μl dimethyl sulfoxide per day by a feeding tube) or vehicle (25 μl dimethl sulfoxide by a feeding tube) from 0.5 day post-coitum (E0.5). Therapy was continued throughout pregnancy.

Data set [5] concerns p38 MAPK. As to the kind of experiment: Immunoblotting of p38 MAPK activity in mice after telmisartan treatment. Type of data set: in vivo. As to conditions: Tgfbr2^fl/fl; Wnt1-Cre mice after telmisartan treatment. Here is the method: Animals. To generate Tgfbr2^fl/fl; Wnt1-Cre mice, we mated Tgfbr2^fl/+; Wnt1-Cre with Tgfbr2^fl/fl mice. To generate Tgfbr2^fl/fl; Wnt1-Cre; Tgfb2^+/- mice, we mated Tgfbr2^fl/+; Wnt1-Cre; Tgfb2^+/- with Tgfbr2^fl/fl mice. To generate Tgfbr2^fl/fl; Wnt1-Cre; Alk5^fl/+ mice, we mated Tgfbr2^fl/+; Wnt1-Cre; Alk5^fl/fl with Tgfbr2^fl/fl; Alk5^fl/fl mice. Genotyping was performed using PCR primers as described previously^28, 29. Female Tgfbr2^fl/fl mice, which underwent timed matings with Tgfbr2^fl/+; Wnt1-Cre male mice, were treated with oral telmisartan (0.5 mg in 25 μl dimethyl sulfoxide per day by a feeding tube) or vehicle (25 μ[…] sulfoxide by a feeding tube) from 0.5 day post-coitum (E0.5). Therapy was continued throughout pregnancy. Immunological analysis. Immunoblots were performed as described previously. Antibodies used for immunoblotting were as follows: rabbit polyclonal antibodies against p38, JNK, and phospho-JNK (Cell Signaling Technology), 14-3-3ζ/δ, Smad2/3, […] (Abeam), phospho-14-3-3 (ABR), 14-3-3ε, and β-spectrin (Santa Cruz Biotechnology); rabbit monoclonal antibodies against phospho-p38, and phospho-Smad2 (Cell Signaling Technology); and mouse monoclonal antibodies against Smad4, and Tgf-βrIII (Santa Cruz Biotechnology), Tgf-β2 (Abeam), and GAPDH (Chemicon). MEPM cells were treated with or without p38 MAPK inhibitor SB203580 at 10 μM for 24 hours.

Data set [6] has as its system Tgfbr2^fl/fl; Wnt1-Cre mice. As to the kind of experiment: Triacylglycerol level in mice after telmisartan treatment. Type of data set: in vivo. The settings on record: E18.5. Here is the method: as §2
Triacylglycerol amount. Triacylglycerol amounts were measured by an enzymatic method using N-ethyl-N-(2-hydroxy-3-sulfopropyl)-3,5-dimethoxyaniline sodium salt according to the manufacturer's instructions (Wako). Data is expressed as mg per 100 mg protein.

For data set [7], the system named is Tgfbr2^fl/fl and Tgfbr2^fl/fl; Wnt1-Cre embryos. In words: Histological analyses of embryo organs (heart, kidney, liver) after feeding telmisartan to pregnant females. Type of data set: in vivo, mice. Here is the method:
as §2
Histological examination. Hematoxylin and eosin staining and BrdU staining were performed as described previously. Immunohistochemical staining was performed as described previously. Antibodies used for immunohistochemistry were anti-β-spectrin rabbit polyclonal, and anti-Tgf-βrIII mouse monoclonal antibodies (Santa Cruz Biotechnology), anti-Tgf-β2 mouse monoclonal, and anti-14-3-3 rabbit polyclonal antibodies (Abeam). Fluorescence images were obtained using a fluorescence microscope (Model IX71, Olympus).

Data set [8] deals with palatal mesenchyme of E13.5 palatal explants. In words: Palatal shelf organ culture with bead implantation or antibody, BrdU cell proliferation and fusion (Example 1). Type of data set: cell-based, mice. On the procedure: Palatal shelf organ cultures and bead implantation. Timed-pregnant mice were sacrificed on postcoital day 13.5 (E13.5). Genotyping was carried out as previously described (Depew et al., 1999; Satokata and Maas, 1994). Paired secondary palatal shelves were microdissected and cultured in serumless, chemically-defined medium as previously described (Ito et al., 2003). For bead implantation, Affi-Gel blue agarose beads (BioRad) were soaked in proteins as previously described (Zhang et al., 2002). […] Shh N-terminal peptide (R & D 7 systems) was used at 1 mg/ml, anti-Shh antibody (Developmental Studies Hybridoma Bank) was used at 0.30 mg/ml, and BSA was used at 10 ng/ml. Neutralizing antibodies to Fgf7 (MAB251) and Mouse IgG1 (MAB002) (R & D Systems) were added to the culture medium at concentrations of 50 μg/ml.
Apoptosis and cell proliferation. Following treatment with […] proteinase K for 15 minutes at room temperature, apoptotic cells were assayed by the TUNEL procedure using the In Situ Cell Death Detection (fluorescein) kit (Roche Molecular Biochemicals) by following the manufacturer's protocol. Cell proliferation was scored by injection of BrdU (5-bromo-2′-deoxy-uridine, Sigma. 100 μg/g body weight) into pregnant females 1 hour before recovery of embryos. For palatal organ culture, BrdU was supplemented into culture medium at concentration of 100 μM for 2 hours before harvest. […]

The subject of data set [9] is MEE of E13.5 wild type palatal shelves. In words: TUNEL apoptosis assay in palatal explants. Type of data set: cell-based, mice. As to conditions: Shh beads vs BSA beads. On the procedure: (§3) Palatal shelf organ cultures and bead implantation. Timed-pregnant mice were sacrificed on postcoital day 13.5 (E13.5). Genotyping was carried out as previously described (Depew et al., 1999; Satokata and Maas, 1994). Paired secondary palatal shelves were microdissected and cultured in serumless, chemically-defined medium as previously described (Ito et al., 2003). For bead implantation, Affi-Gel blue agarose beads (BioRad) were soaked in proteins as previously described (Zhang et al., 2002). Tissues were harvested after 24 hours of culture and fixed in 4% paraformaldehyde for processing. Shh N-terminal peptide (R & D 7 systems) was used at 1 mg/ml, anti-Shh antibody (Developmental Studies Hybridoma Bank) was used at 0.30 mg/ml, and BSA was used at 10 ng/ml. Neutralizing antibodies to Fgf7 (MAB251) and Mouse IgG1 (MAB002) (R & D Systems) were added to the culture medium at concentrations of 50 μg/ml.
Apoptosis and cell proliferation. Following treatment with […] proteinase K for 15 minutes at room temperature, apoptotic cells were assayed by the TUNEL procedure using the In Situ Cell Death Detection (fluorescein) kit (Roche Molecular Biochemicals) by following the manufacturer's protocol. Cell proliferation was scored by injection of BrdU (5-bromo-2′-deoxy-uridine, Sigma. 100 μg/g body weight) into pregnant females 1 hour before recovery of embryos. […]

Another data set deals with Fgf7 expression. As to the kind of experiment: In situ hybridization of Fgf7 in treated palatal explants. Type of data set: cell-based, mice. The settings on record: Shh beads vs BSA beads. On the procedure:
as §3
(§4) In situ hybridization. Samples for whole-mount and section in situ hybridization were fixed in freshly made 4% paraformaldehyde/PBS. In situ hybridizations were performed as previously described (Xu et al., 2005). The following cDNAs were used to generate antisense riboprobes: a 1.2 kb fragment of mouse Msx1, a 900 bp mouse Dlx5, a 1.6 kb mouse Gli1, and 640 bp mouse Shh. […]

Data set [10] deals with Shh expression in the palatal epithelium. In words: In situ hybridization of Shh in treated palatal explants. The format is cell-based, mice. The settings on record: Fgf7 beads. Here is the method: as §3, §4

Entries after “also recorded” stand apart in the source; their conditions may differ.

With `C[S+]([O-])c1ccc(-c2nc(-c3ccc(F)cc3)c(-c3ccncc3)[nH]2)cc1` (stereo not shown) [SB203580, 4-[4-(4-fluorophenyl)-2-(4-methylsulfinylphenyl)-1H-imidazol-5-yl]pyridine], in the data set with p38 MAPK [1], the “phosphorylation of 14-3-3ζ/δ” value was “inhibited” and the “phosphorylation of p38 (Mapk14)” value was “inhibited”. In addition, the “cell proliferation defect (BrdU-labeled nuclei)” value in data set [2] is “rescued cell proliferation”. Also, the lipid droplet accumulation result in [3] is given as “failed to detect lipid droplet accumulation; also recorded: Lipid droplets did not accumulate”.
On to `CC(C)NCC(O)c1ccc(O)c(O)c1` (stereo not shown) [isoproterenol], for which, in the data set on MEPM cells (Tgfbr2^fl/fl MEPM cells, after switch to 100 μM isoproterenol), the “number of lipid droplets” value is on record as “decreased immediately”. In the data set with MEPM cells (Tgfbr2^fl/fl, Wnt1-Cre MEPM cells, after switch to 100 μM isoproterenol), the lipid droplet number result is “remained high”.
On to `CCCCCCCC/C=C\CCCCCCCC(=O)O` [oleic acid], for which the “number of lipid droplets” value in the data set with MEPM cells (MEPM cells of both Tgfbr2^fl/fl and Tgfbr2^fl/fl, Wnt1-Cre mice, oleic acid 100 μM) is given as “increased”.
Turning to `CCCc1nc2c(C)cc(-c3nc4ccccc4n3C)cc2n1Cc1ccc(-c2ccccc2C(=O)O)cc1` [telmisartan, 2-(4-{[4-methyl-6-(1-methyl-1H-1,3-benzodiazol-2-yl)-2-propyl-1H-1,3-benzodiazol-1-yl]methyl}phenyl)benzoic acid], the cell proliferation defect result in data set [4] (Tgfbr2^fl/fl, Wnt1-Cre mice following telmisartan treatment) is listed as “restored cell proliferation defect”. For the same molecule, the “cleft palate (in words)” value is “prevents the cleft palate” in data set [4] and “rescue cleft palate defects” in [4] (listed as Telmisartan). Moreover, in [4] (oral telmisartan 0.5 mg per day to pregnant females from E0.5), the “cleft palate rescued, number of Tgfbr2^fl/fl; Wnt1-Cre mice” value is reported as 5/18. The “up-regulated p38 MAPK activity” value with p38 MAPK [5] is given as “restored to normal”. Besides, the increased triacylglycerol level entry in [6] is given as “restored to normal”. In [7] (Tgfbr2^fl/fl and Tgfbr2^fl/fl, Wnt1-Cre embryos), the “effect on kidney or liver histology” value was “does not appear to affect kidney or liver”. Besides, the heart defect result in data set [7] (Tgfbr2^fl/fl, Wnt1-Cre mice after telmisartan) is “does not rescue the heart defect”. The “side-effects in other organs” value in [7] (embryos after telmisartan to pregnant females) is reported as “without obvious side-effects in other organs”.
For the molecule “Shh: Shh N-terminal peptide (R & D systems) used at 1 mg/ml, soaked into Affi-Gel blue agarose beads”, the “palatal mesenchyme cell proliferation (BrdU)” value in [8] (E13.5 wild type palatal explants, Shh beads vs BSA beads) is “enhanced”. The “palatal fusion of explants” value in [8] (Shh beads, two days of culture) is on record as “able to fuse”. In addition, the “apoptosis in the MEE (TUNEL)” value in data set [9] was “did not affect apoptosis”. In addition, the Fgf7 expression entry with Fgf7 expression is on record as “repressed”.

B1: Fgf7: Fgf7 protein on beads placed into E13.5 palatal shelves in vitro (protein)
chain: CNDMSPEQTATSVNCSSPERHTRSYDYMEGGDIRVRRLFCRTQWYLRIDKRGKVKGTQEMKNSYNIMEIRTVAVGIVAIKGVESEYYLAMNKEGKLYAKKECNEDCNFKELILENHYNTYASAKWTHSGGEMFVALNQKGIPVKGKKTKKEQKTAHFLPMAIT
Regarding B1, the “Shh expression in the palatal epithelium” value in data set [10] (Dlx5−/− samples) is on record as “inhibit Shh expression”; in data set [10] (E13.5 palatal shelves, one day of culture, compared to BSA) it was “dramatic reduction”.

Values taken from patent US20120151612A1, “NON-SURGICAL APPROACH TO PREVENT AND CORRECT CRANIOFACIAL MALFORMATIONS DURING DEVELOPMENT” (UNIVERSITY OF SOUTHERN CALIFORNIA, priority 2010, published 2012).
